Test results: publication PMC4530474, “Carbohydrate scaffolds as glycosyltransferase inhibitors with in vivo antibacterial activity” (Nature Communications, 2015)
In brackets after ≈: the same amount, converted by molar mass. Several values for one entry are separate records, joined by “and”; a condition that tells them apart may be missing. Identical values can stand only once. Entries after “also recorded” stand apart in the source; their conditions may differ.

Assays:
[1] = tested on: S. aureus; test: MIC of disaccharide and monosaccharide libraries (Figures 2, 3); conditions: Staphylococcus aureus
Method: (§1) Bacteria were cultured in Brain–Heart Infusion (Bacto laboratories, Cat. no. CM1135B) at 37 °C overnight. […] MICs were determined visually as the lowest concentration showing no visible growth.

[2] = tested on: Gram-positive bacteria; test: MIC of disaccharide library; type: cell-based
Source text: In the second stage, we used the disaccharide structure–activity relationship information to design more synthetically feasible and smaller monosaccharide molecules. A versatile solid-phase method was developed to rapidly synthesize the representatives of three different core chemotypes M1 to M3, starting from a single monosaccharide building block, that is, 1,5-anhydro-galactitol (see Fig. 3). Chemotype M1 explored the option of using only two of the hydrophobic elements, whereas the other two, M2 and M3, used a benzimidazole moiety as the third hydrophobic group (Fig. 3).

[3] = rat, in vivo, iv
Method: In vitro metabolic stability studies
(§2) Compounds (1 μM) were incubated at 37 °C with human or mouse liver microsomes. The reaction was
(§3) initiated by the addition of an NADPH-regenerating system and quenched at various time points over
(§4) the incubation period by the addition of acetonitrile. Additional samples co-activated by NADP and
(§5) UDPGA (the co-factor for glucuronidation), were included in the incubation for the qualitative
(§6) assessment of the potential for glucuronide formation. The relative loss of parent compound and
(§7) formation of metabolic products was determined by LC/MS using the Q-TOF instrument. The studies
(§8) were conducted by a contract research organization (Centre for Drug Candidate Organization, Monash
University, Melbourne, Australia).
In vivo efficacy and PK studies
(§9) The in vivo pharmacokinetics of the compounds were studies in overnight-fasted male Sprague Dawley
(§10) Rats had access to water ad libitum throughout the pre- and post-dose
(§11) sampling period, and access to food was re-instated 4 hours post-dose. Compounds were
(§12) administrated IV as a 10 minute constant rate infusion (1.0 mL per rat, n=2 rats). Samples of arterial
(§13) Arterial blood was collected directly into
(§14) borosilicate vials (at 4 °C) containing heparin, Complete (a protease inhibitor cocktail), potassium
(§15) fluoride and EDTA to minimize potential for ex vivo degradation. Once collected, blood samples were
(§16) centrifuged, supernatant plasma was removed, and plasma concentration of compounds were
(§17) determined by LCMS (LLQ 0.0014 M). The studies were conducted by a contract research organization
(§18) (Centre for Drug Candidate Organization, Monash University, Melbourne, Australia).

[4] = tested on: S. aureus VRS 1; test: MIC determination (broth microdilution); conditions: Staphylococcus aureus, VRS1
Method: as §1

[5] = mouse liver microsomes, 1 μM, 37 °C
Method: In vitro metabolic stability studies
as §2, §3, §4, §5, §6, §7, §8
University, Melbourne, Australia).
In vivo efficacy and PK studies
as §9, §10, §11, §12, §13, §14
(§19) fluoride and EDTA to minimize potential for ex vivo degradation. Once collected, blood samples were […]
determined by LCMS (LLQ 0.0014 M). […]

[6] = tested on: S. aureus NRS 17—GISA; test: MIC determination (broth microdilution); conditions: Staphylococcus aureus, NRS17
Method: as §1

[7] = tested on: S. aureus (Newbould 305, ATCC 29740); test: Mouse mammary gland infection (mastitis) model
Method: Each compound was instilled at different doses into the teat canal of both contralateral glands from the fourth mammary gland pair of lactating mice at 4 h after bacterial inoculation.
The procedure for mouse mammary gland infection has been recently described[64]. CD-1 lactating mice were utilized 12–14 days after giving birth, with pups weaned 1–2 h before bacterial inoculation of the mammary glands. Inoculation of both left (L4) and right (R4) glands of the fourth abdominal mammary gland pair of anesthetized mice with 150 c.f.u. of S. aureus, was done using 32-gauge syringes (blunt needle). The antimicrobial formulation was instilled into the mammary gland of anesthetized mice at 4 h after bacterial inoculation, followed by i.p. administration of postoperative analgesic Buprecare. […] Bacterial c.f.u. counts were obtained after quantification of serial logarithmic dilutions of mammary gland homogenates on TSA. The detection limit (DL) was 1.7 log10 c.f.u. g^−1 gland weight (for more details see Supplementary Methods).
The actual colony forming units (CFU) of the inocula was confirmed by overnight culture of a serial logarithmic dilution on tryptic soy agar (TSA; Oxoid Limited) plates.

[8] = tested on: bacterial PG biosynthesis in crude B. megaterium membrane; test: In vitro PG biosynthesis, [14C]UDP-GlcNAc incorporation into lipid II and PG, TLC; conditions: for Accumulation of lipid II / Inhibit of PG: vs no antibiotic
Source text: To elucidate the mode of action of the inhibitors, we conducted various GT enzyme inhibition assays. […] This assay monitors [^14C]UDP-GlcNAc incorporation into lipid II and mature PG, in the presence of different concentrations of antibiotics[39]. Owing to the sequential nature of the glycosyltransfer and transpeptidation, it is not possible to determine at which step PG biosynthesis is blocked in this assay. The low concentration of lipid II can be detected by thin-layer chromatography (TLC) separation and subsequent phosphorimaging of pre-solubilized membranes, which was incubated with the cytoplasmic PG precursors UDP-MurNAc-pentapeptide and UDP-[^14C]GlcNAc[41][42].
The cell-free particulate fraction of B. megaterium KM (ATCC13632), capable of catalysing the polymerization of PG from UPD-linked precursors was performed as described previously[61]. B. megaterium was grown in standard medium, harvested and washed with Tris-buffer by centrifugation. Resuspended bacteria were subjected to three freeze/thaw cycles (5 min dry ice, followed by 10 min at RT), homogenized by the glass homogenizer and centrifuged all at 4 °C, leaving most of the cell wall in the pellet. […] After separation, plates were dried, exposed to phosphorimaging screen (1 week), scanned by Typhoon 8600 calculating the integrated density value of each band on silica gel. Changes of PG or lipid II were calculated as a percentage from negative control (for more details see Supplementary Methods).
Inhibition of Lipid II and peptidoglycan biosynthesis
The cell-free particulate fraction of Bacillus megaterium KM (ATCC13632), capable of catalysing the
polymerisation of PG from UPD-linked precursors was performed as described previously 19 with some
modification. Bacillus megaterium was grown in the medium containing tryptone (Difco-Bacto), 1%
the pH to 7.2. Bacteria were harvested when the density had reached to 0.4 mg dry weight mL-1 and
washed in the buffer 0.05 M Tris-HCl (pH 7.8) containing 10 mM MgCl2 by centrifugation at 6,000 x g
for 10 min at 4 °C. All subsequent manipulations were carried out as close to 0 °C as possible.
bacteria were resuspended in the same buffer at a density of 50 mg dry weight ml-1. Then the bacteria
were subjected to three freeze/thaw cycles (dry ice for 5 min followed by RT for 10 min).
freeze/thaw cycles, bacteria were homogenized by using the glass homogenizer at 4 °C (10 min × 2).
The broken cell suspension was centrifuged at 6,000 x g for 10 min at 4 °C. The supernatant which
contained the unbroken cells and the majority of the cell walls was kept for further centrifugation.

[9] = molecular target: S. aureus MGT (Staphylococcus aureus, UniProt Q99T05); test: Inhibition of glycosyltransferase, continuous fluorescence assay with dansyl-Lys lipid II
Source text: Confirmative dose–response assays were subsequently conducted with continuous fluorescent activity assay using a dansyl-labelled, lysine-lipid II substrate[47]. […] The data were fitted to a simple saturation model of inhibitor binding to a single site, from which IC50 values were extracted.

[10] = tested on: E. faecalis; test: MIC, chemotype M3 library (Supplementary Table 1); conditions: Enterococcus faecalis
Method: as §1

[11] = in vivo; conditions: male, CD-1, mouse, ip
Method: In vivo Maximum Tolerated Dose
(§20) Compound dissolved in 0.05% Tween 80/0.9% NaCl were each administered IP at doses of 20, 60 and
(§21) 100 mg kg-1 to groups of 2 CD-1 (Crl.) derived male mice weighing 22 ± 2 g. The animals were observed
(§22) for presence of acute toxic symptoms (mortality, convulsions, tremors, muscle relaxation, sedation,
(§23) etc.) and autonomic effects (diarrhea, salivation, lacrimation, vasodilation, piloerection, etc.) during
the first 30 min post-dosing.
(§24) For the IV studies, compounds were dissolved in 10% DMSO/0.1 M HCl/1% Tween 80/5% Glucose were
(§25) prepared at a dose of 4 mg kg-1 and were administered intravenously once to groups of 3 CD-1 (Crl.)
(§26) derived male mice weighing 22 ± 2 g, and monitored and analyzed similar to the IP study during the
(§27) first 5 min post dosing (IV). In addition, Group 3 and Group 5 were administered intravenously with
(§28) compounds at 4 mg kg-1 for 2 times (T=0 and T=170 minutes) and the autonomic signs and neurological
(§29) changes were observed during the first 5 min after the first and the second dose. Mortality was also

[12] = tested on: S. aureus MSSA, ATCC 25923; test: MIC determination (broth microdilution); conditions: Staphylococcus aureus
Method: as §1

[13] = tested on: E.coli; test: MIC, chemotype M3 library (Supplementary Table 1); conditions: Escherichia coli
Method: as §1

[14] = tested on: E. faecalis ATCC 29212; test: MIC determination (broth microdilution); conditions: Enterococcus faecalis, ATCC29212
Method: as §1

[15] = In vivo pharmacokinetics, i.v. administration to male rats; conditions: Sprague Dawley, rat, iv, 3.5 mg kg^-1
Method: In vitro metabolic stability studies
as §2, §3, §4, §5, §6, §7, §8
University, Melbourne, Australia).
In vivo efficacy and PK studies
as §9, §10, §11, §12, §13, §14, §15, §16, §17, §18

[16] = molecular target: MGT from S. aureus (Staphylococcus aureus, UniProt Q99T05); test: Glycosyltransferase activity by HPLC, NBD-lipid II; conditions: 200 μg ml^−1, NBD-lipid II
Method: (§30) We then monitored the transformation of fluorescent NBD-lipid II by two different GT enzymes, PBP1 from Clostridium difficile and MGT from S. aureus.
(§31) 25 °C. The reaction was initiated by addition of glycosyltransferease (2.5 µg mL-1) and terminated by
(§32) The reaction mixtures were then analysed by a
(§33) HPLC system (Hitachi) equipped with an anion-exchange column (5 μm, 4.6 × 250 mm, SAX1, Supelco
(§34) Co.) using a linear gradient of NH4OAc/MeOH (20 mM to 1 M) at a flow rate of 1 mL min-1. The signals
(§35) were detected with a fluorometer at λex = 355 nm and λem = 460 nm.

[17] = tested on: E. faecium VanA, ATCC 51559; test: MIC determination (broth microdilution); conditions: Enterococcus faecium, ATCC51559
Method: as §1

[18] = tested on: S. pneumoniae MDR, ATCC 700677; test: MIC determination (broth microdilution); conditions: Streptococcus pneumoniae, ATCC700677
Method: as §1

[19] = tested on: S.aureus MSSA; test: MIC, chemotype M3 library (Supplementary Table 1); conditions: Staphylococcus aureus
Method: as §1

[20] = tested on: PBP1 from C. difficile; test: Glycosyltransferase activity by HPLC, NBD-lipid II; conditions: 200 μg ml^−1, NBD-lipid II
Method: as §30, §31, §32, §33, §34, §35

[21] = in vivo; conditions: male, Sprague Dawley, rat, iv, 3.5 mg/kg
Method: In vitro metabolic stability studies
as §2, §3, §4, §5, §6, §7, §8
University, Melbourne, Australia).
In vivo efficacy and PK studies
as §9, §10, §11, §12, §13, §14, §15, §16, §17, §18

[22] = tested on: E. faecium ATCC 35667; test: MIC determination (broth microdilution); conditions: Enterococcus faecium, ATCC35667
Method: as §1

[23] = tested on: S.aureus MRSA; test: MIC, chemotype M3 library (Supplementary Table 1); conditions: Staphylococcus aureus
Method: as §1

[24] = tested on: E. faecium; test: MIC, chemotype M3 library (Supplementary Table 1); conditions: Enterococcus faecium
Method: as §1

[25] = tested on: S. aureus mMRSA, DRSA, ci; test: MIC determination (broth microdilution); conditions: Staphylococcus aureus
Method: as §1

[26] = tested on: E. faecalis VanA, ci; test: MIC determination (broth microdilution); conditions: Enterococcus faecalis
Method: as §1

[27] = In vivo maximum tolerated dose, i.p.; conditions: mice
Method: In vivo Maximum Tolerated Dose
as §20, §21, §22, §23
the first 30 min post-dosing.
as §24, §25, §26, §27, §28, §29

[28] = tested on: S. aureus Newbould 305; test: MIC determination (Mueller-Hinton agar dilution); type: cell-based; conditions: Staphylococcus aureus
Source text: guidelines 23. […] In addition
The animal experiments were
To evaluate the dose-response

[29] = tested on: E. coli ATCC 25922; test: MIC determination (broth microdilution); conditions: Escherichia coli, ATCC25922
Method: as §1

[30] = tested on: E. faecium VanB; test: MIC, chemotype M3 library (Supplementary Table 1); conditions: Enterococcus faecium
Method: as §1

[31] = tested on: S. aureus NRS 1—GISA; test: MIC determination (broth microdilution); conditions: Staphylococcus aureus, NRS1
Method: as §1

[32] = tested on: S. aureus (Smith); test: Mouse model of septicemia
Method: In vivo Septicaemia mouse model
Groups of 10 male CD-1 (Crl.) derived mice weighing 22 ± 2 g were used. The mice were inoculated
of brain-heart infusion broth containing 5% mucin. Compounds were dissolved in 0.05% Tween
80/0.9% NaCl. Vehicle and compounds at 50 and 100 mg kg-1 were each administered intraperitoneally
10 and/or 180 minutes after S. aureus (Smith) challenge. Ampicillin (0.1 mg kg-1, IP, as positive control
agent) was administered to test animals at 1 h after the inoculation. Mortality was monitored once
For the corresponding IV studies compounds at 4 mg kg-1 were dissolved in 10% DMSO/0.1 M HCl/1%
Tween 80/5% glucose, and compounds were each administered intravenously at 10 min and/or 180
min after S. aureus (Smith) challenge.

[33] = tested on: Human red blood cells; conditions: male, 1 h
Method: Human male red blood cells were isolated from fresh whole blood sample and washed with phosphate
buffered saline (PBS) 3 times. Red blood cells were diluted 1/200 with PBS for the haemolysis assay.
Each compound was assayed at 4 different concentrations in quadruplicate. Control items (100 μM
tamoxifen and 1% triton X100) were also assayed in quadruplicate. Background was determined with
1% DMF. The assay was performed for 1 h at 37 °C. The samples were then centrifuged for 10 min at
4°C at 1000 × g, the supernatant was recovered and absorption was measured at 415 nm. Results are
expressed as the % haemolysis compared to 1% triton X100 after background was subtracted, and
fitting dose response curve with Prism (GraphPad) to extract HC50 values.

[34] = tested on: S. aureus MRSA, ATCC 43300; test: MIC determination (broth microdilution); conditions: Staphylococcus aureus
Method: as §1

[35] = microsomes
Method: In vitro metabolic stability studies
as §2, §3, §4, §5, §6, §7, §8
University, Melbourne, Australia).
In vivo efficacy and PK studies
as §9, §10, §11, §12, §13, §14, §19
determined by LCMS (LLQ 0.0014 M). […]

[36] = tested on: TG; conditions: at 0.1 μg ml^−1; no reference given; cited from earlier work
[37] = tested on: S.aureus SG511; conditions: no reference given; cited from earlier work
[38] = tested on: enterococci; parameters: method as in earlier work; conditions: cited from earlier work
[39] = parameters: method as in earlier work; conditions: cited from earlier work
[40] = tested on: staphylococci; parameters: method as in earlier work; conditions: cited from earlier work
[41] = tested on: MR S. aureus, VRE; parameters: method as in PMID 10464005; conditions: cited from earlier work
[42] = mouse mastitis, intramammary, 4 h after inoculation

Sequence of MGT from S. aureus (Q99T05 whole entry): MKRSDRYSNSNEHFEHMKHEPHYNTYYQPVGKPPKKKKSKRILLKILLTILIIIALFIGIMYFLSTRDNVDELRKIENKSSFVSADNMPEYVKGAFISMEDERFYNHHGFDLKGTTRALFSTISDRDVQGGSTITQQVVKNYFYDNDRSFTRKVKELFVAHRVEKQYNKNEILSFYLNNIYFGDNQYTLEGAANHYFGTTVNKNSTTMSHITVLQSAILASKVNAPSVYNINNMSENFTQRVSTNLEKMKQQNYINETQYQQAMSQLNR
Sequence of S. aureus MGT (Q99T05 whole entry): as above

## NC(CC(=O)NC1C(CO)OCC(NC(=O)Nc2ccc(Cl)c(Cl)c2)C1OC1OC(CO)C(O)C(O)C1NC(=O)Nc1ccc(OC(F)(F)F)cc1)c1ccc(-c2ccccc2)cc1 (stereo not shown) [ACL19378]
[1]
  MIC: 2 µg/mL
[2]; 50% serum
  Activity in the presence of serum: limited activity
[2]; Gram-positive bacteria
  MIC: ~2 µg/mL

## O=C(Nc1ccc(Cl)c(C(F)(F)F)c1)NC1COC(CO)C(n2c(NCc3ccccc3)nc3cc(C(F)(F)F)ccc32)C1O (stereo not shown) [ACL20215]
[3]
  % Dose in urine: < LLQ
[4]
  MIC: 4 µg/mL (≈ 6.08 µM)
[5]
  Metabolic stability (degradation of the compound): no degradation
[6]
  MIC: 8 µg/mL (≈ 12.2 µM)
[7]; 200 μg gland-1
  Glands Cleared: 0%
[7]; 200 μg gland-1, 14 h post treatment
  CFU/g gland: 8.36 ± 1.05 log10
[7]; 400 μg gland-1
  Glands Cleared: 0%
[7]; 400 μg gland-1, 14 h post treatment
  CFU/g gland: 7.77 ± 0.52 log10
[7]; 800 μg gland-1
  Glands Cleared: 0%
[7]; 800 μg gland-1, 14 h post treatment
  CFU/g gland: 6.60 ± 1.42 log10
[7]; 1000 μg gland-1
  Glands Cleared: 0%
[7]; 1000 μg gland-1, 14 h post treatment
  CFU/g gland: 5.72 ± 0.63 log10
[7]; mouse mastitis, intramammary
  PD50 (50% protective dose): >1,000 μg per gland
  PD100 (100% protective dose): >1,000 μg per gland
[7]; [42]
  ED2logc.f.u. (effective dose to reduce bacterial load by 2 × log(c.f.u.)): 730 μg per gland
  ED4logc.f.u. (effective dose to reduce bacterial load by 4 × log(c.f.u.)): 1,400 μg per gland
[8]; 10 μg ml-1, 3 h
  Accumulation of lipid II: -3.4 ± 12.7%
  Inhibit of PG: 0.5 ± 6.7%
[8]; 30 μg ml-1, 3 h
  Accumulation of lipid II: 17.7 ± 7.1%
  Inhibit of PG: 7.9 ± 0.9%
[8]; 100 μg ml-1, 3 h
  Accumulation of lipid II: 34.9 ± 0.6%
  Inhibit of PG: 17.0 ± 1.0%
[8]; 200 μg ml-1, 3 h
  Accumulation of lipid II: 47.1 ± 2.8%
[8]; concentration not given
  Accumulation of lipid II (in words): accumulation of lipid II, although to a lesser extent
[9]
  IC50: 25.8 µM and 26 µM
[10]
  MIC: 4 µg/mL (≈ 6.08 µM)
[11]
  MTD at 72 h: 100 mg/kg
[12]
  MIC: 4 µg/mL (≈ 6.08 µM)
[13]
  MIC: > 64 µg/mL
[14]
  MIC: 4 µg/mL (≈ 6.08 µM)
[15]
  blood plasma ratio: 0.86
[16]
  Inhibitory effect on GT (single concentration): some inhibitory effect
[17]
  MIC: 8 µg/mL (≈ 12.2 µM)
[18]
  MIC: 4 µg/mL (≈ 6.08 µM)
[19]
  MIC: 4 µg/mL (≈ 6.08 µM)
[20]
  Inhibitory effect on GT (single concentration): some inhibition; also recorded: only moderate effect
[21]
  Vd: 97.2 L/kg
  half-life: 27.2 h
[21]; Blood Cltotal
  clearance: 48.9 mL/min/kg
[21]; Plasma Cltotal
  clearance: 42.1 mL/min/kg
[22]
  MIC: 16 µg/mL (≈ 24.3 µM)
[23]
  MIC: 2 µg/mL (≈ 3.04 µM)
[24]
  MIC: 16 µg/mL (≈ 24.3 µM)
[25]
  MIC: 4 µg/mL (≈ 6.08 µM)
[26]
  MIC: 8 µg/mL (≈ 12.2 µM)
[27]
  Good tolerance up to (dose): 60 mg/kg
  No mortality up to (dose): 100 mg/kg
[27]; 100 mg kg^−1
  Central/autonomic responses: some minor changes to central/autonomic responses
[28]
  MIC: 2 µg/mL (≈ 3.04 µM)
[29]
  MIC: > 64 µg/mL
[30]
  MIC: 16 µg/mL (≈ 24.3 µM)
[31]
  MIC: 4 µg/mL (≈ 6.08 µM)
[32]; i.p., 50 mg kg^−1, 10 min after inoculation
  Survival 7 days: 100%
[32]; i.v., 4 mg kg^−1, 10 min after inoculation
  Survival 7 days: 10%
[33]
  HC50: 74 µg/mL
[34]
  MIC: 4 µg/mL (≈ 6.08 µM)
[35]
  Metabolic stability (in vitro): No degradation

## CC(=O)N[C@H]1[C@H](O[C@H]2[C@@H](OP(=O)(O)OC[C@@H](OCCC(C)CCCCC(C)(C)CCC(C)CCC(C)CCCC(C)C)C(=O)O)O[C@H](C(N)=O)[C@@](C)(O)[C@@H]2OC(N)=O)O[C@H](CO)[C@@H](O)[C@@H]1O (stereo partly shown) [Disaccharide-degradation product]
[36]
  TG inhibition: 45%
[37]
  MIC: > 50 µg/mL

## CCCCCCCCCCCCO[C@H](COP(=O)(O)O[C@H]1O[C@H](C(N)=O)[C@@H](O)[C@H](NC(=O)Nc2ccc(OC(F)(F)F)cc2)[C@H]1O[C@@H]1O[C@H](CO)[C@H](O)[C@H](O)[C@H]1NC(=O)c1cccc(C(F)(F)F)c1)C(=O)O [TS30153]
[38]
  MIC: 12.5 µg/mL (≈ 11.7 µM)
[39]
  In vivo activity: no in vivo activity
[40]
  MIC: 3.12 µg/mL (≈ 2.93 µM)
[41]
  MIC: 3.1 – 12.5 μg ml^–1

## CN[C@H](CC(C)C)C(=O)N[C@H]1C(=O)N[C@@H](CC(N)=O)C(=O)N[C@H]2C(=O)N[C@H]3C(=O)N[C@H](C(=O)N[C@H](C(=O)O)c4cc(O)cc(O)c4-c4cc3ccc4O)[C@H](O)c3ccc(c(Cl)c3)Oc3cc2cc(c3O[C@@H]2O[C@H](CO)[C@@H](O)[C@H](O)[C@H]2O[C@H]2C[C@](C)(N)[C@H](O)[C@H](C)O2)Oc2ccc(cc2Cl)[C@H]1O [Vancomycin, reference compound]
[4]
  MIC: > 64 µg/mL
[6]
  MIC: 8 µg/mL (≈ 5.52 µM)
[8]; 10 μg ml-1, 3 h
  Accumulation of lipid II: 36.6 ± 6.2%
  Inhibit of PG: 12.8 ± 2.0%
[8]; 30 μg ml-1, 3 h
  Accumulation of lipid II: 106.8 ± 33.4%
  Inhibit of PG: 15.0 ± 3.5%
[8]; 100 μg ml-1, 3 h
  Accumulation of lipid II: 140.6 ± 30.8%
  Inhibit of PG: 21.3 ± 1.4%
[8]; 200 μg ml-1, 3 h
  Accumulation of lipid II: 151.5 ± 23.1%
  Inhibit of PG: 36.0 ± 2.8%
[12]
  MIC: 1 µg/mL (≈ 0.69 µM)
[17]
  MIC: > 64 µg/mL
[18]
  MIC: 2 µg/mL (≈ 1.38 µM)
[25]
  MIC: 4 µg/mL (≈ 2.76 µM)
[31]
  MIC: 4 µg/mL (≈ 2.76 µM)
[34]
  MIC: 1 µg/mL (≈ 0.69 µM)
